From patent publication US5130425A, “Spiro-lactams and analogs thereof useful as aldose reductase inhibitors” (American Home Products Corporation, priority 1991, dated 1992)

How the values were obtained:
aldose reductase = target: T1, aldose reductase (Bos taurus, UniProt P16116); assay: In vitro aldose reductase inhibition (modified procedure of Hayman and Kinoshita, enzyme from bovine lens); format: biochemical
T1 construct: preparation of the enzyme from bovine lens; from tissue; host or cells: bovine lens
Protocol: Only two minor reagent changes were made: (a) the rinsing mixture was an aqueous 5% (w/v) trichloroacetic acid solution and (b) the stock solution was prepared by dissolving 25 mg of dulcitol in 100 mL of an aqueous trichloroacetic acid solution. [N.B.: For each experiment the average value found in the tissue from rats fed the glucose diet was subtracted from the individual values found in the corresponding tissue in galactose-fed rats to obtain the amount of polyol accumulated.] […] In the present case the procedure of Hayman and Kinoshita was modified in that the final chromatography step was omitted in the preparation of the enzyme from bovine lens.

[1] = test system: galactitol (dulcitol) accumulation in tissues of galactosemic rats; assay: Galactosemic rat test: lowering of galactitol (dulcitol) accumulation in lens, sciatic nerve and diaphragm; format: in vivo, rat (Sprague-Dawley, male); parameters: key to % Lowering Galactitol Accumulation In vivo, L: NS: not significant; conditions: 4 days, vs untreated galactosemic rats; for % Lowering Galactitol Accumulation In vivo, D: diaphragm; for % Lowering Galactitol Accumulation In vivo, L: lens
Excerpt: The aldose reductase inhibiting property of the compounds of this invention and the utilization of the compounds in preventing, diminishing and alleviating diabetic complications are demonstrable in experiments using galactosemic rats, see Dvornik et al., Science, 182, 1146 (1973). Such experiments are exemplified hereinbelow after the listing of the following general comments pertaining to these experiments:
(a) Four or more groups of six male rats, 50-70 g, Sprague-Dawley strain, were used. The first group, the control group, was fed a mixture of laboratory chow (rodent Laboratory Chow, Purina) and glucose at 20% (w/w %) concentration. An untreated galactosemic group was fed a similar diet in which galactose was substituted for glucose. The third group was fed a diet prepared by mixing a given amount of the test compound with the galactose containing diet. The concentration of galactose in the diet of the treated groups was the same as that for the untreated galactosemic group.
(b) After four days, the animals were killed by euthanization. Both the lens and sciatic nerve were removed, weighed and stored frozen for polyol determination.
(c) The polyol determination was performed by a modification of the procedure of M. Kraml and L. Cosyns, Clin. Biochem., 2,373 (1969). Only two minor reagent changes were made: (a) the rinsing mixture was an aqueous 5% (w/v) trichloroacetic acid solution and (b) the stock solution was prepared by dissolving 25 mg of dulcitol in 100 mL of an aqueous trichloroacetic acid solution. [N.B.: For each experiment the average value found in the tissue from rats fed the glucose diet was subtracted from the individual values found in the corresponding tissue in galactose-fed rats to obtain the amount of polyol accumulated.] The aldose reductase inhibiting effects of the compounds of formula (I) were also tested by employing an in vitro testing procedure similar to that described by S. Hayman and J. H. Kinoshita, J. Biol. Chem., 240, 877 (1965). In the present case the procedure of Hayman and Kinoshita was modified in that the final chromatography step was omitted in the preparation of the enzyme from bovine lens.
The figures under L, N, and D represent the percentage decrease of dulcitol accumulation in the tissues of the lens, sciatic nerve, and diaphragm, respectively, for treated rats as compared to untreated rats.

[2] = column headed 10^5 (concentration unit not given)
[3] = column headed 10^-6 (concentration unit not given)
[4] = column headed 10^-7 (concentration unit not given)

| Structure (SMILES) | % Inhibition In Vitro (aldose reductase; [2]) [%] | % Inhibition In Vitro (aldose reductase; [3]) [%] | % Inhibition In Vitro (aldose reductase; [4]) [%] | % Lowering Galactitol Accumulation In vivo, D ([1]; 11 mg/kg/day in diet) [%] | % Lowering Galactitol Accumulation In vivo, D ([1]; 49 mg/kg/day in diet) [%] | % Lowering Galactitol Accumulation In vivo, L ([1]; 11 mg/kg/day in diet) | % Lowering Galactitol Accumulation In vivo, L ([1]; 49 mg/kg/day in diet) [%] | % Lowering Galactitol Accumulation In vivo, D ([1]; 28 mg/kg/day in diet) [%] | % Lowering Galactitol Accumulation In vivo, L ([1]; 28 mg/kg/day in diet) [%] |
| --- | --- | --- | --- | --- | --- | --- | --- | --- | --- |
| CN1C(=O)c2ccc(Cl)cc2C2(CC(=O)N2)C1=O (stereo not drawn) [Cl CH3, 6'-chloro-2'-methylspiro[azetidine-2,4'(1'H)-isoquinoline]-1',3',4(2'H)-trione] | 84 | 75 | 22 | 70 | 82 | NS | 66 |  |  |
| CN1C(=O)c2ccc(Br)cc2C2(CC(=O)N2)C1=O (stereo not drawn) [Br CH3, 6'-bromo-2'-methylspiro[azetidine-2,4'(1'H)-isoquinoline]-1',3',4(2'H)-trione] | 96 | 77 | 16 |  |  |  |  | 86 | 36 |
